System: 20S core particle (20S CP) of the proteasome
Assay: FRET peptide reporter hydrolysis, single concentration
Format: biochemical, Homo sapiens
Conditions: stimulator (activation); site unknown

For `C[C@H]1[C@H](C)CC[C@]2(C(=O)O)CC[C@]3(C)C(=CC[C@@H]4[C@@]5(C)CC[C@H](O)C(C)(C)[C@@H]5CC[C@]43C)[C@H]12` [UA, ursolic acid], the “% stimulation over control at 25 μM” value was 215%.
